One test relates to Haemophilus influenzae. Nature of the test: Antibacterial activity against Heamophilus influenzae HI3542 by microbroth method. Type of test: functional. On the technique in general: In broth dilution the organism is exposed to a series of concentrations in liquid medium.
Another test deals with Streptococcus pneumoniae. The test can be described thus: Antibacterial activity against Streptococcus pneumoniae SV1 SP3 by micro-broth method. It is filed as functional.
A further test deals with Staphylococcus aureus. Nature of the test: Antibacterial activity against Staphylococcus aureus UC76 SA1 by micro-broth method. Type of test: functional.
A further test relates to Enterococcus faecalis. Nature of the test: Antibacterial activity against Enterococcus faecalis MG2 EF1 by micro-broth method. It is filed as functional.
The subject of a further test is Escherichia coli. Nature of the test: Inhibition of transcription and translation activity in Escherichia coli by luciferase reporter assay. Type of test: functional, organism-based. (In a reporter assay the amount or activity of a reporter protein is the signal.)
Another test relates to Streptococcus pyogenes. Nature of the test: Antibacterial activity against Streptococcus pyogenes C203 SP1-1 by micro-broth method. It is filed as functional.
Another test concerns Moraxella catarrhalis. The test can be described thus: Antibacterial activity against Moraxella catarrhalis BC-3531 by micro-broth method. Type of test: functional.

Structures are written as SMILES. In brackets after ≈: the same amount, converted by molar mass.

The term IC50 denotes the concentration needed to halve the response being measured. Low values mean higher potency, high ones lower potency. Take `CCOC(=O)NC[C@H]1CN(c2ccc3c(c2)CCCc2c(-c4ccno4)n[nH]c2-3)C(=O)O1`: the MIC in the test on Haemophilus influenzae was greater than 64 µg/mL; in the test with Streptococcus pneumoniae, 0.5 µg/mL (≈ 1.14 µM); with Staphylococcus aureus, 1 µg/mL (≈ 2.29 µM); in the test on Enterococcus faecalis, 0.5 µg/mL (≈ 1.14 µM); in the test on Streptococcus pyogenes, 0.5 µg/mL (≈ 1.14 µM); in the test on Moraxella catarrhalis, 4 µg/mL (≈ 9.14 µM). Besides, in the test with Escherichia coli, inhibition was half-maximal at 1.8 µM (IC50).

As to `CC(C)C(=O)NC[C@H]1CN(c2ccc3c(c2)CCCc2c(C(C)C)n[nH]c2-3)C(=O)O1`, the MIC amounted to 64 µg/mL (≈ 156 µM) in the test on Haemophilus influenzae; 4 µg/mL (≈ 9.74 µM) against Streptococcus pneumoniae; 8 µg/mL (≈ 19.5 µM) against Staphylococcus aureus; 8 µg/mL (≈ 19.5 µM) against Enterococcus faecalis; 4 µg/mL (≈ 9.74 µM) in the test with Streptococcus pyogenes; 32 µg/mL (≈ 78 µM) with Moraxella catarrhalis. In the test with Escherichia coli, the IC50 was 7.9 µM.

On to `Cc1cc(C(=O)NC[C@H]2CN(c3cc(F)c4c(c3)CCCc3c(-c5cc(C)on5)n[nH]c3-4)C(=O)O2)no1`, for which the MIC against Haemophilus influenzae, with Streptococcus pneumoniae, in the test on Staphylococcus aureus, with Enterococcus faecalis, in the test on Streptococcus pyogenes and against Moraxella catarrhalis was greater than 64 µg/mL each time. The same molecule showed an IC50 with Escherichia coli of 11.5 µM.

Turning to `O=C(NC[C@H]1CN(c2ccc3c(c2)CCCc2c(-c4cccnc4)n[nH]c2-3)C(=O)O1)c1cccnc1`, the MIC was greater than 64 µg/mL in the test on Haemophilus influenzae; 1 µg/mL (≈ 2.08 µM) in the test on Streptococcus pneumoniae; 8 µg/mL (≈ 16.6 µM) against Staphylococcus aureus; 4 µg/mL (≈ 8.32 µM) in the test on Enterococcus faecalis; 2 µg/mL (≈ 4.16 µM) in the test with Streptococcus pyogenes; 16 µg/mL (≈ 33.3 µM) in the test on Moraxella catarrhalis. In the test with Escherichia coli, this molecule registered an IC50 of 3.7 µM.

Turning to `CCc1n[nH]c2c1CCCc1cc(N3C[C@H](CNC(C)=O)OC3=O)ccc1-2`, the MIC against Haemophilus influenzae was determined as 4 µg/mL (≈ 10.9 µM); against Streptococcus pneumoniae, 0.125 µg/mL (≈ 0.339 µM); against Staphylococcus aureus, 0.5 µg/mL (≈ 1.36 µM); with Enterococcus faecalis it was 0.25 µg/mL (≈ 0.679 µM); against Streptococcus pyogenes it was 0.125 µg/mL (≈ 0.339 µM); with Moraxella catarrhalis it was 1 µg/mL (≈ 2.71 µM). Further, the concentration for half-maximal inhibition (IC50) with Escherichia coli stood at 1.1 µM.

On to `CC(=O)NC[C@H]1CN(c2ccc3c(c2)CCCc2c(-c4ccc(O)cc4)n[nH]c2-3)C(=O)O1`, for which the MIC with Haemophilus influenzae came to 4 µg/mL (≈ 9.25 µM); in the test on Streptococcus pneumoniae, 0.25 µg/mL (≈ 0.578 µM); in the test with Staphylococcus aureus it was 1 µg/mL (≈ 2.31 µM); with Enterococcus faecalis it was 0.5 µg/mL (≈ 1.16 µM); in the test on Streptococcus pyogenes it was 2 µg/mL (≈ 4.62 µM); with Moraxella catarrhalis, 2 µg/mL (≈ 4.62 µM). Besides, in the test on Escherichia coli, the IC50 is 1.7 µM.

Take `CC(=O)NC[C@H]1CN(c2ccc3c(c2)CCCc2c(-c4csc(-c5ccccc5)n4)n[nH]c2-3)C(=O)O1`: the MIC in the test on Haemophilus influenzae was greater than 64 µg/mL; in the test with Streptococcus pneumoniae it was 0.5 µg/mL (≈ 1 µM); against Staphylococcus aureus it was 8 µg/mL (≈ 16 µM); against Enterococcus faecalis, 8 µg/mL (≈ 16 µM); against Streptococcus pyogenes it was 1 µg/mL (≈ 2 µM); against Moraxella catarrhalis, greater than 64 µg/mL. Moreover, the IC50 in the test on Escherichia coli is greater than 11.4 µM.

Consider `CC(=O)NC[C@H]1CN(c2ccc3c(c2)CCCc2c(-c4snnc4C)n[nH]c2-3)C(=O)O1`, for which the MIC with Haemophilus influenzae stood at 8 µg/mL (≈ 18.2 µM); in the test with Streptococcus pneumoniae, 0.25 µg/mL (≈ 0.57 µM); against Staphylococcus aureus, 0.5 µg/mL (≈ 1.14 µM); in the test with Enterococcus faecalis, 0.5 µg/mL (≈ 1.14 µM); against Streptococcus pyogenes, 0.125 µg/mL (≈ 0.285 µM); in the test with Moraxella catarrhalis, 2 µg/mL (≈ 4.56 µM). For the same molecule, the IC50 with Escherichia coli is 0.7 µM.

As for `Cc1cc(C(=O)NC[C@H]2CN(c3cc(F)c4c(c3)CCCc3c(-c5cc(C)n(C)n5)n[nH]c3-4)C(=O)O2)nn1C`, the MIC in the test with Haemophilus influenzae, in the test on Streptococcus pneumoniae, in the test with Staphylococcus aureus, with Enterococcus faecalis, against Streptococcus pyogenes and with Moraxella catarrhalis was greater than 64 µg/mL throughout. This molecule displayed an IC50 in the test with Escherichia coli greater than 25 µM.

As for `O=C(NC[C@H]1CN(c2ccc3c(c2)CCCc2c(-c4ccno4)n[nH]c2-3)C(=O)O1)c1ccno1`, the MIC against Haemophilus influenzae came out at 32 µg/mL (≈ 69.5 µM); against Streptococcus pneumoniae, 0.5 µg/mL (≈ 1.09 µM); against Staphylococcus aureus, 1 µg/mL (≈ 2.17 µM); in the test on Enterococcus faecalis it was 1 µg/mL (≈ 2.17 µM); in the test with Streptococcus pyogenes, 0.5 µg/mL (≈ 1.09 µM); in the test with Moraxella catarrhalis, 4 µg/mL (≈ 8.69 µM). The half-maximal inhibitory concentration (IC50) in the test with Escherichia coli is 16.8 µM.

In the case of `CC(=O)NC[C@H]1CN(c2ccc3c(c2)CCCc2c(-c4cc5ccccc5o4)n[nH]c2-3)C(=O)O1`, the MIC in the test with Haemophilus influenzae was greater than 64 µg/mL; against Streptococcus pneumoniae, 0.5 µg/mL (≈ 1.1 µM); against Staphylococcus aureus, 2 µg/mL (≈ 4.38 µM); with Enterococcus faecalis it was 0.5 µg/mL (≈ 1.1 µM); in the test on Streptococcus pyogenes, 0.5 µg/mL (≈ 1.1 µM); in the test on Moraxella catarrhalis it was 8 µg/mL (≈ 17.5 µM). In the test on Escherichia coli, this molecule showed an IC50 greater than 31.2 µM.

Consider `NC[C@H]1CN(c2ccc3c(c2)CCCc2c(-c4ccno4)n[nH]c2-3)C(=O)O1`, for which the MIC against Haemophilus influenzae was greater than 64 µg/mL; in the test on Streptococcus pneumoniae it was 4 µg/mL (≈ 10.9 µM); in the test on Staphylococcus aureus, 16 µg/mL (≈ 43.8 µM); against Enterococcus faecalis it was 8 µg/mL (≈ 21.9 µM); with Streptococcus pyogenes it was 2 µg/mL (≈ 5.47 µM); against Moraxella catarrhalis, 64 µg/mL (≈ 175 µM). In the test on Escherichia coli, this molecule came in with an IC50 of 8.3 µM.

On to `CC(=O)NC[C@H]1CN(c2cc(F)c3c(c2)CCCc2c(-c4ccno4)n[nH]c2-3)C(=O)O1`, for which the MIC in the test on Haemophilus influenzae was greater than 64 µg/mL; against Streptococcus pneumoniae, 0.5 µg/mL (≈ 1.18 µM); against Staphylococcus aureus it was 1 µg/mL (≈ 2.35 µM); against Enterococcus faecalis, 0.5 µg/mL (≈ 1.18 µM); against Streptococcus pyogenes, 0.25 µg/mL (≈ 0.588 µM); against Moraxella catarrhalis, 4 µg/mL (≈ 9.4 µM). The same molecule came in with an IC50 in the test with Escherichia coli of 1.4 µM.

As to `CC(=O)NC[C@H]1CN(c2ccc3c(c2)CCCc2c(C(F)(F)F)n[nH]c2-3)C(=O)O1`, the MIC against Haemophilus influenzae came to 4 µg/mL (≈ 9.79 µM); in the test on Streptococcus pneumoniae it was 0.25 µg/mL (≈ 0.612 µM); against Staphylococcus aureus, 1 µg/mL (≈ 2.45 µM); in the test with Enterococcus faecalis, 1 µg/mL (≈ 2.45 µM); in the test with Streptococcus pyogenes it was 1 µg/mL (≈ 2.45 µM); against Moraxella catarrhalis it was 1 µg/mL (≈ 2.45 µM). This molecule showed an IC50 in the test with Escherichia coli of 1.3 µM.
